Source: patent US10870639B2, “Pyrimidine compounds and pharmaceutical compositions for preventing or treating cancers including the same” (HANMI PHARM. CO., LTD., priority 2018, dated 2020)

Key:
[1] = Pharmacokinetic profile in mice (p.o. and i.v.); format: in vivo; parameters: AUC: concentration or dose not given beside the values; conditions: mouse, plasma; for AUC: LC-MS/MS, non-compartment analysis, read-out: Area under the curve (AUC) of mice; for bioavailability: po, BA=(AUC p.o./AUC i.v.)×(Dose i.v./Dose p.o.)×100
Method: After test substances were formulated by using the selected solvents, they were administered orally (p.o.) and intravenously (iv) once for each and a certain amount of blood was taken at a predetermined time, and plasma was isolated from the blood and a concentration analysis was performed thereon by LC-MS/MS. The AUC (drug concentration and an area under the curve) was calculated according to the linear-log trapezoidal summation formula by using the non-compartment analysis of the WinNonlin program through the plasma concentration curves over time. The bioavailability (BA) was calculated by applying the calculated AUC value to the following formula. BA (%)=(AUC p.o./AUC i.v.)×(Dose i.v./Dose p.o.)×100

FLT3 WT = FLT3 WT (Homo sapiens (Human), UniProt P36888); experiment: LanthaScreen kinase binding assay, FLT3 WT; conditions: kinase tracer-236, 50 nM to 0.05 nM
Sequence of FLT3 WT (P36888 27-993): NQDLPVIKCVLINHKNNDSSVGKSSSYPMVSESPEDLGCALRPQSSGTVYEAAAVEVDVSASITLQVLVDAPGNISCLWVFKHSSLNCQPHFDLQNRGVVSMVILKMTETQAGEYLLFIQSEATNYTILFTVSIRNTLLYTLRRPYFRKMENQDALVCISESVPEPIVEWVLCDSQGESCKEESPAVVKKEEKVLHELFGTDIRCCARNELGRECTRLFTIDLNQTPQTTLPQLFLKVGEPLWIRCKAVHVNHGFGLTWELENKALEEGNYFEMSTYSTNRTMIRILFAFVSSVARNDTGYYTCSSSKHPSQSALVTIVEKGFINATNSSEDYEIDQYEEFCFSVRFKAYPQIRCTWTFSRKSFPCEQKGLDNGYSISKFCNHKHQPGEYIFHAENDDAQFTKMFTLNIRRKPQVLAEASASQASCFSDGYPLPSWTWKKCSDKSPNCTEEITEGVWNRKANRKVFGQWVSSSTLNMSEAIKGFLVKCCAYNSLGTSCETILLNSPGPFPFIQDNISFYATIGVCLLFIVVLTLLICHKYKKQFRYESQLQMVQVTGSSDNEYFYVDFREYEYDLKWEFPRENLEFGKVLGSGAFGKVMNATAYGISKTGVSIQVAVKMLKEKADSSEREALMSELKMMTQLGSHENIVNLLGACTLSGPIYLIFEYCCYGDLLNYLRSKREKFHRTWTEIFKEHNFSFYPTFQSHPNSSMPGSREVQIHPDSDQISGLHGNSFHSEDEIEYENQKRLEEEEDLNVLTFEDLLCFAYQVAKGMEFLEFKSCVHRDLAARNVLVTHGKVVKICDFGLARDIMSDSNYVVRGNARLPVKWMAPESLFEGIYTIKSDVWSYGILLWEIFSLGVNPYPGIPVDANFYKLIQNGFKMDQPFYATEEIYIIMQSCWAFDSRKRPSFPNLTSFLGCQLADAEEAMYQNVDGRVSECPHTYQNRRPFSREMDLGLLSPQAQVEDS
Method: (§2) The inhibitory activity of some of the compounds described above against FLT3-ITD, FLT3 wild type (WT), VEGFR2 (KDR), and SYK kinase was measured.
(§3) This experiment was carried out on a 384-well plate in conditions including 50 mM HEPES pH 7.5, 0.01% BRIJ-35, 10 mM MgCl2, 1 mM EGTA, and 1% DMSO.

MOLM-13 = experiment: Cell growth inhibition (MTS), MOLM-13; format: cell-based; conditions: Homo sapiens, MOLM-13, 72 h, incubation three days
Method: (§1) The human acute myelogenous leukemia […] cell line MOLM-13 (DSMZ no. ACC 554) was incubated in RPM11640 medium supplemented with 20% heat-inactivated FBS at a temperature of 37° C. The incubated cell line was prepared in an amount of 2.0×10^4 cells/100 μL, and then plated on a 96-well plate. The RPMI1640 medium was serially diluted with the test compounds at a concentration in a range of 1 μM to 0.01 nM at a ratio of 1:10. Subsequently, incubation was performed thereon for three days. For the human acute myelogenous leukemia cell line MV-4-11 cell line (ATCC® CRL-9591™), the cells were incubated at a temperature of 37° C. in IMDM medium supplemented with 10% FBS. The incubated cell line was prepared in an amount of 2×10^4 cells/100 μL, and then plated on a 96-well plate. The IMDM medium was treated with cascade dilution of three test compounds at a concentration in a range of 1 μM to 0.01 nM at a rate of 1/10. Subsequently, incubation was performed thereon for three days. MTS test was performed to measure cell viability, and the growth inhibition (GI50) value of the cell line was calculated using GraphPad Prism software.

MV-4-11 = experiment: Cell growth inhibition (MTS), MV-4-11; format: cell-based; conditions: Homo sapiens, MV4-11, 72 h, incubation three days
Method: as §1

FLT3 ITD = FLT3 ITD (Homo sapiens, UniProt P36888, ITD); experiment: LanthaScreen kinase binding assay, FLT3 ITD
Sequence of FLT3 ITD (P36888 whole entry, looked up, change not shown): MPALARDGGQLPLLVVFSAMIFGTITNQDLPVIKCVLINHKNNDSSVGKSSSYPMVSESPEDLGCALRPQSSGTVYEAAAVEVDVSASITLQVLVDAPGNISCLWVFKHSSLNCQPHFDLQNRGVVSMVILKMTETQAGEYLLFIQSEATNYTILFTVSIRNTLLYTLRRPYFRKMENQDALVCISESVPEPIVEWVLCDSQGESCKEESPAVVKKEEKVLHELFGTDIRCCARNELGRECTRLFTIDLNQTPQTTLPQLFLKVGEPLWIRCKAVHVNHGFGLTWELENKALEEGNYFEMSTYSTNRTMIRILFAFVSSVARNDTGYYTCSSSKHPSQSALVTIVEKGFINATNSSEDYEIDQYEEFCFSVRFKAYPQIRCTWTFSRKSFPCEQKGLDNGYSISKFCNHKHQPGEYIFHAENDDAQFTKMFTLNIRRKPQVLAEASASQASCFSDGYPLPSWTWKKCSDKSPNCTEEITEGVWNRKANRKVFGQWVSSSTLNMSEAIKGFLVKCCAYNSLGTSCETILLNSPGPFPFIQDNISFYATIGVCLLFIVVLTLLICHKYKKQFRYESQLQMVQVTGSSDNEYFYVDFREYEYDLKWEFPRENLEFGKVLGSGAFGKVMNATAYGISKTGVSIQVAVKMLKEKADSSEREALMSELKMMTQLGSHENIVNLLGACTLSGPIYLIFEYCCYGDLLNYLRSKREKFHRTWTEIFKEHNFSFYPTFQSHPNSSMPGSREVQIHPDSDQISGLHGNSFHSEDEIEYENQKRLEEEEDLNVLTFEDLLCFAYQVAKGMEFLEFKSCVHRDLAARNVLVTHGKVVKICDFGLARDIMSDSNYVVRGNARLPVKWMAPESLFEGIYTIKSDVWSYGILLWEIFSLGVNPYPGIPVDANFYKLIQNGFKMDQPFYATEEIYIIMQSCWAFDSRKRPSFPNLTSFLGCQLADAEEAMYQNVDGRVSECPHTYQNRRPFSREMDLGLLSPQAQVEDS
Method: as §2, §3

| AUC [1] [ng·h/mL] | bioavailability [1] [%] | GI50 (MOLM-13) [nM] | GI50 (MV-4-11) [nM] | Structure (SMILES) | IC50 (FLT3 WT) [nM] | IC50 (FLT3 ITD) [nM] |
| --- | --- | --- | --- | --- | --- | --- |
| 95.5 | 6.6 | – | – | COc1cc(CN2CCN(CCO)CC2)cc(Nc2ncc(Cl)c(-c3c[nH]c4ccccc34)n2)c1 [Control Compound 1] | – | – |
| 110 | 6.7 | – | – | OCCN1CCN(Cc2cccc(Nc3ncc(Cl)c(-c4c[nH]c5ccccc45)n3)c2)CC1 [Control Compound 2] | – | – |
| 2270 | 27.3 | – | – | Cc1ccc2c(-c3nc(Nc4cc(C5CC5)cc(N5CCC(N(C)C)CC5)c4)ncc3Cl)c[nH]c2c1 [Control Compound 3] | – | – |
| 518 | 27 | – | – | CN(C)C1CCN(c2cc(Nc3ncc(Cl)c(-c4c[nH]c5ccccc45)n3)cc(C3CC3)c2)CC1 [Control Compound 4] | – | – |
| 1220 | 25.6 | – | – | Cc1ccc2c(-c3nc(Nc4cc(CN5CCN(C(C)(C)CO)CC5)cc(C5CC5)c4)ncc3Cl)c[nH]c2c1 [Control Compound 5] | – | – |
| – | – | 0.4 | 0.3 | C[C@@H]1CN(Cc2cc(Nc3ncc(Cl)c(-c4c[nH]c5cc(F)ccc45)n3)cc(C3CC3)c2)C[C@H](C)N1CCO [Example 3, 2-((2R,6S)-4-(3-((5-chloro-4-(6-fluoro-1H-indole-3-yl)pyrimidine-2-yl)amino)-5-cyclopropylbenzyl)-2,6-dimethylpiperazine-1-yl)ethane-1-ol] | – | 8.1 |
| 184 | 7.4 | 0.7 | 1.7 | C[C@@H]1CN(Cc2cc(Nc3ncc(Cl)c(-c4c[nH]c5ccccc45)n3)cc(C3CC3)c2)C[C@H](C)N1CCO [Example 4, 2-((2R,6S)-4-(3-((5-chloro-4-(1H-indole-3-yl)pyrimidine-2-yl)amino)-5-cyclopropylbenzyl)-2,6-dimethylpiperazine-1-yl)ethane-1-ol] | – | 3.6 |
| – | – | – | – | C[C@@H]1CN(Cc2cc(Nc3ncc(Cl)c(-c4c[nH]c5ccccc45)n3)cc(C3CC3)c2)CCN1 [Example 6, (R)-5-chloro-N-(3-cyclopropyl-5-((3-methylpiperazine-1-yl)methyl)phenyl)-4-(1H-indole-3-yl)pyrimidine-2-amine] | – | 1.8 |
| – | – | 5 | 2.8 | Cc1ccc2c(-c3nc(Nc4cc(CN5CC(C)NC(C)C5)cc(C5CC5)c4)ncc3Cl)c[nH]c2c1 (stereo not shown) [Example 10, 5-chloro-N-(3-cyclopropyl-5-((3,5-dimethylpiperazine-1-yl)methyl)phenyl)-4-(6-methyl-1H-indole-3-yl)pyrimidine-2-amine] | – | – |
| – | – | 2.6 | 2.1 | Cc1cnc(Nc2cc(CN3C[C@@H](C)N[C@@H](C)C3)cc(C3CC3)c2)nc1-c1c[nH]c2ccccc12 [Example 13, N-(3-cyclopropyl-5-(((3R,5S)-3,5-dimethylpiperazine-1-yl)methyl)phenyl)-4-(1H-indole-3-yl)-5-methylpyrimidine-2-amine] | – | 8.7 |
| – | – | – | – | C[C@@H]1CN(Cc2cc(Nc3ncc(Cl)c(-c4c[nH]c5cc(CO)ccc45)n3)cc(C3CC3)c2)C[C@H](C)N1 [Example 16, (3-(5-chloro-2-((3-cyclopropyl-5-(((3R,5S)-3,5-dimethylpiperazine-1-yl)methyl)phenyl)amino)pyrimidine-4-yl)-1H-indole-6-yl)methanol] | 0.4 | 0.5 |
| – | – | – | – | COc1cc2c(-c3nc(Nc4cc(CN5C[C@@H](C)N[C@@H](C)C5)cc(C5CC5)c4)ncc3Cl)c[nH]c2cc1C [Example 17, 5-chloro-N-(3-cyclopropyl-5-(((3R,5S)-3,5-dimethylpiperazine-1-yl)methyl)phenyl)-4-(5-methoxy-6-methyl-1H-indole-3-yl)pyrimidine-2-amine] | 9.5 | > 50 |
| – | – | – | – | Cc1cc2[nH]cc(-c3nc(Nc4cc(CN5C[C@@H](C)N[C@@H](C)C5)cc(C5CC5)c4)ncc3Cl)c2cc1O [Example 18, 3-(5-chloro-2-((3-cyclopropyl-5-(((3R,5S)-3,5-dimethylpiperazine-1-yl)methyl)phenyl)amino)pyrimidine-4-yl)-6-methyl-1H-indole-5-ol] | 3.7 | 13 |
| – | – | – | – | Cc1ccc2c(c1)NC(=O)C2c1nc(Nc2cc(CN3C[C@@H](C)N[C@@H](C)C3)cc(C3CC3)c2)ncc1Cl (stereo partly drawn) [Example 19, 3-(5-chloro-2-((3-cyclopropyl-5-(((3R,5S)-3,5-dimethylpiperazine-1-yl)methyl)phenyl)amino)pyrimidine-4-yl)-6-methylindoline-2-one] | – | > 50 |
| – | – | – | – | Cc1ccc2c(-c3nc(Nc4cc(CN5C[C@@H](C)N[C@@H](C)C5)cc(C5CC5)c4)ncc3Cl)c[nH]c2c1O [Example 22, 3-(5-chloro-2-((3-cyclopropyl-5-(((3R,5S)-3,5-dimethylpiperazine-1-yl)methyl)phenyl)amino)pyrimidine-4-yl)-6-methyl-1H-indole-7-ol] | – | 2.4 |
| – | – | – | – | Cc1ccc2c(-c3nc(Nc4cc(C5CC5)cc(CN5C[C@@H](C)N[C@@H](C)C5)c4O)ncc3Cl)c[nH]c2c1 [Example 23, 2-((5-chloro-4-(6-methyl-1H-indole-3-yl)pyrimidine-2-yl)amino)-4-cyclopropyl-6-(((3R,5S)-3,5-dimethylpiperazine-1-yl)methyl)phenol] | 0.4 | > 50 |
| – | – | 0.8 | < 0.01 | Cc1ccc2c(-c3nc(Nc4cc(CN5C[C@@H](C)N[C@H](C)C5)cc(C5CC5)c4)ncc3Cl)c[nH]c2c1 [Example 28, 5-chloro-N-(3-cyclopropyl-5-(((3R,5R)-3,5-dimethylpiperazine-1-yl)methyl)phenyl)-4-(6-methyl-1H-indole-3-yl)pyrimidine-2-amine] | – | – |
| – | – | – | – | Cc1ccc2c(-c3nc(Nc4cc(CN5C[C@@H](C)N(O)[C@@H](C)C5)cc(C5CC5)c4)ncc3Cl)c[nH]c2c1 [Example 31, (2R,6S)-4-(3-((5-chloro-4-(6-methyl-1H-indole-3-yl)pyrimidine-2-yl)amino)-5-cyclopropylbenzyl)-2,6-dimethylpiperazine-1-ol] | – | 6.9 |

| Structure (SMILES) | AUC [1] [ng·h/mL] | bioavailability [1] [%] | GI50 (MOLM-13) [nM] | GI50 (MV-4-11) [nM] | IC50 (FLT3 WT) [nM] | IC50 (FLT3 ITD) [nM] |
| --- | --- | --- | --- | --- | --- | --- |
| C[C@@H]1CN(Cc2cc(Nc3ncc(Cl)c(-c4c[nH]c5cc(Cl)ccc45)n3)cc(C3CC3)c2)C[C@H](C)N1 [Example 2, 5-chloro-4-(6-chloro-1H-indole-3-yl)-N-(3-cyclopropyl-5-(((3R,5S)-3,5-dimethylpiperazine-1-yl)methyl)phenyl)pyrimidine-2-amine] | – | – | 6.2 | 3.5 | 1.9 | 1.5 |
| Cc1ccc2c(-c3nc(Nc4cc(CN5C[C@@H](C)N[C@@H](C)C5)cc(C5CC5)c4)ncc3F)c[nH]c2c1 [Example 12, N-(3-cyclopropyl-5-(((3R,5S)-3,5-dimethylpiperazine-1-yl)methyl)phenyl)-5-fluoro-4-(6-methyl-1H-indole-3-yl)pyrimidine-2-amine] | – | – | 21 | 11 | 1.2 | 2.5 |
| Cc1ccc2c(-c3nc(Nc4cc(CN5C[C@@H](C)NC(C)(C)C5)cc(C5CC5)c4)ncc3Cl)c[nH]c2c1 [Example 25, (R)-5-chloro-N-(3-cyclopropyl-5-((3,3,5-trimethylpiperazine-1-yl)methyl)phenyl)-4-(6-methyl-1H-indole-3-yl)pyrimidine-2-amine] | 21800 | 21.2 | 8.5 | 9.3 | 2.3 | 20 |
| Cc1ccc2c(-c3nc(Nc4cc(CN5C[C@H](CO)N[C@H](C)C5)cc(C5CC5)c4)ncc3Cl)c[nH]c2c1 [Example 26, ((2R,6R)-4-(3-((5-chloro-4-(6-methyl-1H-indole-3-yl)pyrimidine-2-yl)amino)-5-cyclopropylbenzyl)-6-methylpiperazine-2-yl)methanol] | – | – | 6.1 | 22 | 1.5 | 2.3 |
